One test concerns the target PIK3CB (Human) (UniProt P42338). Description: Enzyme Assay.
Test [1] deals with PIK3CD (Human) (UniProt O00329). Nature of the test: Enzyme Assay.
Test [2] has the same target. Nature of the test: Cell-Based Assay. Conditions: raji.
A further test has as its target PIK3CG (human) (UniProt P48736). Description: Enzyme Assay.

Sequence of PIK3CD (Human) (O00329 whole entry, looked up): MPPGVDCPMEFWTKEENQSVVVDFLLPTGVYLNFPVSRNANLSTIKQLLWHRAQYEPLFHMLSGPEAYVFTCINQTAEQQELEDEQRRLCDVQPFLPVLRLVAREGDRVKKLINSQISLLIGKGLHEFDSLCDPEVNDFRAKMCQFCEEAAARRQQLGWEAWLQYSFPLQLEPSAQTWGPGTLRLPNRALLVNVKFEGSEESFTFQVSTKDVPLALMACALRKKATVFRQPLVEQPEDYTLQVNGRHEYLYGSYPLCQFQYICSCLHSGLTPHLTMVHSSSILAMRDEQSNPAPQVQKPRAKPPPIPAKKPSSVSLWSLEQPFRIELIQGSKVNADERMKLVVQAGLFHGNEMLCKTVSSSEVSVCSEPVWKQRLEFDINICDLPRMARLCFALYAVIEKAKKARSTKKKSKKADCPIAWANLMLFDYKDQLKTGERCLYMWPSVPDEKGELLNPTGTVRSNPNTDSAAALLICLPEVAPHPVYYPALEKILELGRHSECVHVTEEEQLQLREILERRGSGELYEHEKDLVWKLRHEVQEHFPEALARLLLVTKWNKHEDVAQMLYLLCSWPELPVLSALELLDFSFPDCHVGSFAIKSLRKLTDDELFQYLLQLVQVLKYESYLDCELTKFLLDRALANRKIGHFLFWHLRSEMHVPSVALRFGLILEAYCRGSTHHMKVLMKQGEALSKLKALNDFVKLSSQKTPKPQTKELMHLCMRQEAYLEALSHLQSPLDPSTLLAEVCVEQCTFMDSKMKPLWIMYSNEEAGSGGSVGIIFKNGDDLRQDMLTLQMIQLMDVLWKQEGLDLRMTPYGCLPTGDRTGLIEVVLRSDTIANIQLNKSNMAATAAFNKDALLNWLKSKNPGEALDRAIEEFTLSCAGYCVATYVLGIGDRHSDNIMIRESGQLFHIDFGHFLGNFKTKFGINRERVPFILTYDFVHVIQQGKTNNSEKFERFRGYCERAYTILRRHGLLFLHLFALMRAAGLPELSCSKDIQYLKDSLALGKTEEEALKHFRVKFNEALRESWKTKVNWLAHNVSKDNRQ
Sequence of PIK3CG (human) (P48736 whole entry, looked up): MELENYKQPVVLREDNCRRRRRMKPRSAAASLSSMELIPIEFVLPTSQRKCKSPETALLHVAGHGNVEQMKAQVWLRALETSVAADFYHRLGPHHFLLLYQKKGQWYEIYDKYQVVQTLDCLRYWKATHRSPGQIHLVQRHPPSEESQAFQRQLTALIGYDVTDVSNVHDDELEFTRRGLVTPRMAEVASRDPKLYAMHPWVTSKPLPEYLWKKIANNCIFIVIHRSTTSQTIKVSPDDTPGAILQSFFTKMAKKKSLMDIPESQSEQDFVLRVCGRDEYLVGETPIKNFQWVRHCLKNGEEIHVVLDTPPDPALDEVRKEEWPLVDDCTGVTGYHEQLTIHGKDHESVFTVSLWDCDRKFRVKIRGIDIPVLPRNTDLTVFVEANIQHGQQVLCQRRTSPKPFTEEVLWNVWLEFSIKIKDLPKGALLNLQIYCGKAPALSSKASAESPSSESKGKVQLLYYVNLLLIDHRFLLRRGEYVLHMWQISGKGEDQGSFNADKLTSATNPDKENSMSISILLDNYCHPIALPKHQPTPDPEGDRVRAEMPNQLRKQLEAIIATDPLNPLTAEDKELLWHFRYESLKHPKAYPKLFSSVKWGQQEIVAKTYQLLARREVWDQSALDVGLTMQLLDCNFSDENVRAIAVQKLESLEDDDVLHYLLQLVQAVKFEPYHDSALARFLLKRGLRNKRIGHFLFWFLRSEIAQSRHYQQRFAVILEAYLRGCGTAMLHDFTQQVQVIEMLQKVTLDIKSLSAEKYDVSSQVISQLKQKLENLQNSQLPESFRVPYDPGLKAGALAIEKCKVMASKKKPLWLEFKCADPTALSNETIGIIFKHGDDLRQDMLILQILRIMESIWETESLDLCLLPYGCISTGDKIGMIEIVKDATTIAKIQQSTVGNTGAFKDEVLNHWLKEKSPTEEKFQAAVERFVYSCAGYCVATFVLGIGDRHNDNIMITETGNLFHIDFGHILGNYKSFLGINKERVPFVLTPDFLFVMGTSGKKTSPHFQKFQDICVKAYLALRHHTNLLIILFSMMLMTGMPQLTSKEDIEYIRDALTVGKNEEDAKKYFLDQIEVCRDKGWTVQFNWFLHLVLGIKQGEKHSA
Sequence of PIK3CB (Human) (P42338 whole entry, looked up): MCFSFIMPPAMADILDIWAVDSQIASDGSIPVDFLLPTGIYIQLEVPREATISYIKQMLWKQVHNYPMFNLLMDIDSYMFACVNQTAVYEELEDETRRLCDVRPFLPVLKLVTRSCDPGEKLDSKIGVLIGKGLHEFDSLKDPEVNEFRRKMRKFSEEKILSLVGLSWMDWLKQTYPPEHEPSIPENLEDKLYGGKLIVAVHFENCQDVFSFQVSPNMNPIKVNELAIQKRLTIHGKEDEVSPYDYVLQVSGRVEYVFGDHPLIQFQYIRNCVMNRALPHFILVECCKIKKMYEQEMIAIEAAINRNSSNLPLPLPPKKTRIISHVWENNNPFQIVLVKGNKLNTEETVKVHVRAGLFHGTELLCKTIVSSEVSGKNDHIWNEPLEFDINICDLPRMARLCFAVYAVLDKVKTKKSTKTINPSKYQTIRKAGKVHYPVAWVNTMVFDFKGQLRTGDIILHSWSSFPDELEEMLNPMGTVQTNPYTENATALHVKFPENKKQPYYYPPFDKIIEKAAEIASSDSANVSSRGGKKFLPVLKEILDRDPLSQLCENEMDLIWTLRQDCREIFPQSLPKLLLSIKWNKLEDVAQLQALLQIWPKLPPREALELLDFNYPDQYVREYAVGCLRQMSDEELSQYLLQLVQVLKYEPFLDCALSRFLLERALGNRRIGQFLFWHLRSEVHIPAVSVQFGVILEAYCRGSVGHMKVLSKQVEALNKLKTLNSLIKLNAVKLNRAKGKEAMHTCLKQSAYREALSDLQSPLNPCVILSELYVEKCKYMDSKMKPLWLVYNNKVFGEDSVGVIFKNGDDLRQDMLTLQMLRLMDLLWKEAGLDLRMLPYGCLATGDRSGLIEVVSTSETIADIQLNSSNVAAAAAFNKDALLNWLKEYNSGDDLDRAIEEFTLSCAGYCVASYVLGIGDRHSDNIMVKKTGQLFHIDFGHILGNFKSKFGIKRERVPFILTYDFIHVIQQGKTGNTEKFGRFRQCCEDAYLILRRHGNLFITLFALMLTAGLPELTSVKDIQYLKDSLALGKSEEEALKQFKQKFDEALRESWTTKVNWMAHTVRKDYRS

For the compound `C[C@H](NC(=O)c1c(N)nn2cccnc12)c1cc2cccc(C#Cc3cnn(C)c3)c2c(=O)n1C1CC1`, the concentration for half-maximal inhibition (IC50) against PIK3CB (Human) lay in the range of 1 to 5 µM; against PIK3CD (Human) [1], 5 to 10 µM; on PIK3CD (Human) [2], 0.1 to 0.5 µM.
`C[C@H](NC(=O)c1c(N)nn2cccnc12)c1cc2cccc(C#Cc3cncn3C)c2c(=O)n1C1CC1`: the concentration for half-maximal inhibition (IC50) was 1 to 5 µM on PIK3CB (Human), 5 to 10 µM against PIK3CD (Human) [1], 1 to 5 µM at PIK3CG (human) and 0.1 to 0.5 µM at PIK3CD (Human) [2].
Take `C[C@H](NC(=O)c1c(N)nn2cccnc12)c1cc2cccc(NC(=O)c3cnn(C)c3)c2c(=O)n1-c1ccccc1`: the IC50 against PIK3CB (Human) lay in the range of 5 to 10 µM; at PIK3CD (Human) [1] it was 5 to 10 µM; at PIK3CG (human) it was 1 to 5 µM; against PIK3CD (Human) [2], 1 to 10 µM.
Consider `C[C@H](NC(=O)c1c(N)nn2cccnc12)c1cc2cccc(C#Cc3cnn(C)c3)c2c(=O)n1C1CCCCC1`, for which the figures for the half-inhibitory concentration (IC50) at PIK3CB (Human), against PIK3CD (Human) [1] and at PIK3CG (human) were 5 to 10 µM, 5 to 10 µM and 1 to 5 µM, respectively.
In the case of `C[C@H](NC(=O)c1c(N)nn2cccnc12)c1cc2cccc(C=Cc3ccccc3)c2c(=O)n1-c1ccccc1`, the concentration for half-maximal inhibition (IC50) is 5 to 10 µM at PIK3CB (Human), 5 to 10 µM against PIK3CD (Human) [1] and greater than 5 µM at PIK3CG (human).
For `C[C@H](NC(=O)c1c(N)nn2cccnc12)c1cc2cccc(C#Cc3cc[nH]c(=O)c3)c2c(=O)n1-c1ccccc1`, the half-inhibitory concentration (IC50) was 5 to 10 µM against PIK3CB (Human), 5 to 10 µM against PIK3CD (Human) [1], 0.1 to 0.5 µM at PIK3CG (human) and 0.1 to 0.5 µM on PIK3CD (Human) [2].
Take `C[C@H](NC(=O)c1c(N)nn2cccnc12)c1cc2cccc(C#Cc3cnn(C)c3)c2c(=O)n1-c1ccc(F)cc1`: the IC50 against PIK3CB (Human) lay within 5 to 10 µM; on PIK3CD (Human) [1] it was 5 to 10 µM; on PIK3CG (human) it was 0.001 to 0.1 µM.
On to `Cc1cc(C)n2nc(N)c(C(=O)N[C@@H](C)c3cc4cccc(C#Cc5cnn(C)c5)c4c(=O)n3-c3ccccc3)c2n1`, for which the 50% inhibitory concentration (IC50) against PIK3CB (Human) lay in the range of 5 to 10 µM; against PIK3CD (Human) [1] it was 5 to 10 µM; at PIK3CG (human), 0.1 to 0.5 µM.
With `Cc1nc(C#Cc2cccc3cc([C@H](C)NC(=O)c4c(N)nn5cccnc45)n(-c4ccccc4)c(=O)c23)cs1`, the IC50 is 5 to 10 µM against PIK3CB (Human), 5 to 10 µM against PIK3CD (Human) [1], 0.001 to 0.1 µM against PIK3CG (human) and 0.1 to 0.5 µM against PIK3CD (Human) [2].
As for `C[C@H](NC(=O)c1c(N)nn2cccnc12)c1cc2cccc(C#CC3CCN(C)CC3)c2c(=O)n1-c1ccccc1`, the concentration for half-maximal inhibition (IC50) against PIK3CB (Human) was in the range of 5 to 10 µM; against PIK3CD (Human) [1], 5 to 10 µM; against PIK3CG (human) it was 0.5 to 1 µM.
As for `CCOC(C#Cc1cccc2cc([C@H](C)NC(=O)c3c(N)nn4cccnc34)n(-c3ccccc3)c(=O)c12)OCC`, the half-maximal inhibitory concentration (IC50) fell in the range of 5 to 10 µM at PIK3CB (Human), 5 to 10 µM at PIK3CD (Human) [1], 0.5 to 1 µM against PIK3CG (human) and 0.5 to 1 µM on PIK3CD (Human) [2].
For the compound `C[C@H](NC(=O)c1c(N)nn2cccnc12)c1cc2cccc(C#CCO)c2c(=O)n1-c1ccccc1`, the IC50 was 1 to 5 µM against PIK3CB (Human), 0.5 to 1 µM on PIK3CD (Human) [1], 0.001 to 0.1 µM against PIK3CG (human) and 0.001 to 0.1 µM against PIK3CD (Human) [2].
Regarding `COc1ccc(C#Cc2cccc3cc([C@H](C)NC(=O)c4c(N)nn5cccnc45)n(-c4ccccc4)c(=O)c23)cn1`, the half-maximal inhibitory concentration (IC50) on PIK3CB (Human) was 5 to 10 µM; against PIK3CD (Human) [1], 5 to 10 µM; on PIK3CG (human) it was 0.1 to 0.5 µM; against PIK3CD (Human) [2], 0.5 to 1 µM.
With `C[C@H](NC(=O)c1c(N)nn2cccnc12)c1cc2cccc(C#Cc3cncn3C)c2c(=O)n1-c1ccccc1`, the concentration for half-maximal inhibition (IC50) is 5 to 10 µM on PIK3CB (Human), 5 to 10 µM against PIK3CD (Human) [1], 0.1 to 0.5 µM against PIK3CG (human) and 0.5 to 1 µM against PIK3CD (Human) [2].
On to `C[C@H](NC(=O)c1c(N)nn2cccnc12)c1cc2cccc(C#CCN3CCCC3=O)c2c(=O)n1-c1ccccc1`, for which the half-inhibitory concentration (IC50) against PIK3CB (Human) was 1 to 5 µM; at PIK3CD (Human) [1] it was 0.001 to 0.5 µM; on PIK3CG (human), 0.001 to 0.1 µM; against PIK3CD (Human) [2], 0.001 to 0.1 µM.
Consider `C[C@H](NC(=O)c1c(N)nn2cccnc12)c1cc2cccc(C#Cc3cocn3)c2c(=O)n1-c1ccccc1`, for which the IC50 against PIK3CB (Human) lay in the range of 1 to 5 µM; at PIK3CD (Human) [1] it was 1 to 5 µM; against PIK3CG (human) it was 0.001 to 0.1 µM; against PIK3CD (Human) [2] it was 0.1 to 0.5 µM.
`C[C@H](NC(=O)c1c(N)nn2cccnc12)c1cc2cccc(C#CC3CCNCC3)c2c(=O)n1-c1ccccc1`: the half-maximal inhibitory concentration (IC50) fell in the range of 5 to 10 µM against PIK3CB (Human), 5 to 10 µM against PIK3CD (Human) [1], 0.5 to 1 µM against PIK3CG (human) and 1 to 10 µM against PIK3CD (Human) [2].
As for `C[C@H](NC(=O)c1c(N)nn2cccnc12)c1cc2cccc(C#CC(F)(F)F)c2c(=O)n1-c1ccccc1`, the IC50 at PIK3CB (Human) is 5 to 10 µM; on PIK3CD (Human) [1], 5 to 10 µM; on PIK3CG (human) it was 1 to 5 µM; on PIK3CD (Human) [2] it was 0.5 to 1 µM.
As for `C[C@H](NC(=O)c1c(N)nn2cccnc12)c1cc2cccc(C#CC(C)(C)C)c2c(=O)n1-c1ccccc1`, the IC50 against PIK3CB (Human) was in the range of 5 to 10 µM; on PIK3CD (Human) [1], 5 to 10 µM; on PIK3CG (human) it was 1 to 5 µM; at PIK3CD (Human) [2], 1 to 10 µM.
Regarding `C[C@H](NC(=O)c1c(N)nn2cccnc12)c1cc2ccc3ccccc3c2c(=O)n1-c1ccccc1`, the IC50 against PIK3CB (Human) lay within 5 to 10 µM; against PIK3CD (Human) [1], 5 to 10 µM; on PIK3CG (human) it was 0.5 to 1 µM; on PIK3CD (Human) [2], 1 to 10 µM.

Values taken from the Kinase Knowledgebase extract (Sharma et al. 2016).
